# Patent US12685725B2, “Pridopidine for the treatment of mitochondrial-associated diseases and disorders and endoplasmic reticulum (ER) stress” (PRILENIA NEUROTHERAPEUTICS LTD., priority 2019, dated 2026)
# Where two headings read alike, the source gives them in different places.
# Assays:
# [1] = system: S1R/BiP colocalization in NIH 3T3 cells
# Procedure: Colocalization of S1R and mitochondria was assessed in NIH 3T3 cells expressing WT myc-Htt20Q or mutant myc-Htt96Q. Cells were then fixed, permeabilized and reacted with mouse anti-myc and rabbit anti-S1R. Images were pseudo-colored to better visualize the colocalization of S1R and MitoTracker.
# (§1) Transfections of HEK 293 cells were carried out according to the calcium phosphate method. STHdh^Q7/7 cells are a murine striatal cell line with a stable knock-in of the full-length wild type (WT) human Htt containing a polyglutamine stretch of 7 glutamines (Trettel et al. 2000). […] No cell line used is listed as a commonly misidentified cell line. Cell lines were not authenticated. To reduce any risk of cross-contamination they were grown for a limited number of passages. Transient transfections of NIH 3T3 and STHdh^Q7/7 cells were performed using an MP-100 Microporator (Digital Bio) or ViaFect™ Transfection Reagent (Cat.No. E4981) (Promega), according to the manufacturer's protocols.
# Briefly, cells grown for 24 h after transfection on coverslips in 24-well plates were fixed with 3% paraformaldehyde, followed by blocking with 50 mM glycine in PBS and normal goat IgG in PBS/2% BSA. The cells were incubated with primary antibodies for 1 h, washed and incubated for 30 min with secondary antibodies, followed by washes. Nuclei were stained with 4′,6-diamidino-2-phenylindole (Cat.No. F6057) (Sigma). Confocal microscopy was done on a Zeiss laser scanning confocal microscope (LSM 510; Carl Zeiss, Jena, Germany) as described previously. ImageJ was used to quantify fluorescence intensity in images of treated individual cells compared to untreated cells with and without Htt96Q-mCherry aggregates and to calculate Mander's coefficients for colocalization studies.
# YAC128 striatal neurons = conditions: 1 μM
# Procedure: Briefly, plasmid was diluted in TE (in mM: 1 Tris-HCl pH 7.3, 1 mM EDTA), followed by the addition of CaCl2 (in mM: 2.5 CaCl2 in 10 HEPES, pH 7.2). The DNA solution was carefully added to 2×HEBS (in mM: 12 dextrose, 50 HEPES, 10 KCl, 280 NaCl and 1.5 Na2HPO4·2H2O, pH 7.2) while bubbling air through the solution. The mixture was then incubated for 25 min at room temperature. The precipitates were added dropwise to the coverslips in Neurobasal medium and incubated for 80 minutes at 37° C. The DNA-Ca^2+-phosphate precipitates were dissolved with freshly-made dissolution medium (Neurobasal medium with 20 mM HEPES, pH 6.8) and incubated for 7 min at room temperature. The transfected neurons were then washed with Neurobasal medium and transferred back to their original dishes containing conditioned culture medium until DIV12.
# [2] = system: eIF2α phosphorylation in HEK 293 cells; conditions: for concentration of maximal effect on reducing eIF2α phosphorylation: cells expressing Htt96Q
# Procedure: as §1
# Cells were lysed in PBS containing 1% Triton X-100, 0.5% sodium deoxycholate with protease inhibitors and centrifuged to pellet insoluble aggregates, debris and nuclei. Phosphatase inhibitor cocktail 2 and 3 and 10 mM […] phosphate were added to the lysis buffer to inhibit phosphatases for detection of phosphorylated proteins. Supernatants were separated from pellets and incubated in loading buffer for 5 min at 100° C., pellets were incubated for 10 min at 100° C. After SDS-PAGE and transfer to nitrocellulose membrane, blocking was done in 5% low-fat milk and 0.1% Tween-20 in PBS for 1 h. Incubation with the primary antibody was overnight at 4° C. and after three washes in 0.1% Tween-20 in PBS, incubation with the appropriate secondary antibody was for 1 h at room temperature. After washing, enhanced chemiluminescence assay was performed and the membrane was exposed and quantified in a Bio-Rad ChemiDocXRS Imaging System (Bio-Rad, Hercules, CA).
# YAC128 mice = conditions: 30 mg/kg/day oral gavage 45 days, vs vehicle-treated HD mice, p=0.0270
# Procedure: 1.5-month-old WT and hemizygous YAC128 mice (males and females in equal proportion) were divided into four groups. […] Mice were divided 4 animals per cage enriched in corn-husk nesting material and paper rolls, each cage representing one individual experiment, for a total of 9 animals per group. Pridopidine was dissolved in deionized sterile water. Animals were weighed every week and the volume of treatment adjusted accordingly. Mice were behaviorally tested in rotarod immediately before commencing treatment and on the day before finishing treatment. Tests were conducted blindly at a set time during the day. Mice were sacrificed 24 h after administration of the final pridopidine dose, and mitochondria isolated from the striatum.
# [3] = system: Htt96Q aggregates in S1R+/+ and S1R−/− HEK 293 cells; conditions: 24 h
# Procedure: HEK 293 cells were grown on 60 mm plates and transfected for the expression of myc-Htt96Q. Cells were collected 24 hours post-transfection. After washing with 1×PBS cells were resuspended in 100 μl of 1×PBS+ protease inhibitor cocktail. Sonication was done in a sonic bath for 3×10 sec (amp5-6), leaving on ice for 30 sec between the sonications. Cell debris were removed by centrifugation at 16,000×g for 15 min and protein concentration was measured in the supernatant using the BCA method. Samples containing 50 μg total protein were taken and the volume adjusted to 100 μl with 1% SDS in PBS. After incubation for 5 min at 100° C. sample duplicates were loaded on the slots of a nitrocellulose membrane pre-wet with 1% SDS in PBS in a dot-blotting apparatus. Slots were washed twice with 1 ml 1% SDS in PBS and the membrane was transferred to 5% milk blocking solution. Immunoblotting was performed as described above.
# [4] = system: S1R-silenced HD lymphoblasts; conditions: 5 μM, 24 h
# Procedure: S1R depletion was induced by treating with S1R-directed siRNA duplexes (Origene, cat no: SR426072). siRNA transfection was performed in antibiotic-free growth medium using the Polyplus JETPRIME transfection protocol as per manufacturer's instructions (Polyplus). Forty-eight hours after transfection the cells were subjected to pridopidine treatment and/or oxidative stress challenge. S1R knockdown efficiency was determined by Immunoblot analysis.
# TMRE assay: Primary neurons and lymphoblasts in suspension were cultured in 6-well plates.
# HD lymphoblasts = conditions: 5 μM, H2O2-challenged conditions, p=0.0001
# Procedure: H2O2 (9.8 M stock) was dissolved in cell culture medium prior to experimentation. Primary neurons and lymphoblasts cultured on PDL-coated plates were treated with H2O2 (0-1 mM) for up to 6 hours. Oxidative stress was measured using the CellROX red reagent (Life Technologies, catalog no. C10422). Cells were treated with 5 μM CellRox red in complete medium, then incubated for 30 minutes. The cells were then washed with PBS and imaged on a Zeiss Axiovert inverted microscope (Zeiss, Jena, Germany) using a 10× objective. Exposure settings were maintained for all samples. Eight random fields were sampled, and the fluorescence intensity was measured using ImageJ software and normalized to the DAPI signal.
structure (smiles),measurement,setting,value
"CCCN1CCC(c2cccc(S(C)(=O)=O)c2)CC1 [Pridopidine, 4-[3-(methylsulfonyl)phenyl]-1-propyl-piperidine]",S1R/BiP colocalization,[1]; cells expressing Htt20Q,does not affect S1R/BiP colocalization
same,S1R/BiP colocalization (BiP-RFP),"[1]; cells expressing Htt96Q aggregates, 150 μM","restores S1R/BiP colocalization in cells expressing Htt96Q aggregates to normal, unstressed levels"
same,colocalization of S1R and BiP-GFP,"[1]; cells expressing myc-Htt96Q, 150 μM",shows a trend towards increasing colocalization
same,velocity of motile mitochondria,"YAC128 striatal neurons; YAC128 neurons, p<0.05",This decrease was ameliorated
same,proportion of motile mitochondria,"YAC128 striatal neurons; YAC128 striatal neurons, p=0.0286",significantly increases the proportion of motile mitochondria
same,reduction of eIF2α-phosphorylation levels compared to the untreated control,"[2]; HEK293 cells expressing Htt96Q, 24 h, dose-dependent 0 to 3 μM",3.6 fold
same,phosphorylation of eIF2α,"[2]; Htt96Q-expressing cells, high doses of 30 and 150 μM",no effect
same,concentration of maximal effect on reducing eIF2α phosphorylation,[2]; after 8 hours,3 µM
same,concentration of maximal effect on reducing eIF2α phosphorylation,[2]; after 24 hours,3 µM
same,eIF2α phosphorylation,[2]; cells expressing WT Htt20Q,unaffected by pridopidine treatment
same,TG-induced ER stress as measured by eIF2α-P,"[2]; cells expressing myc-Htt20Q, 2 μg/ml thapsigargin",down to the levels of untreated cells
same,"motor performance, latency to fall in accelerated rotarod",YAC128 mice,significant motor improvement
same,increase of the amount of Htt96Q in SDS-insoluble aggregates,[3]; S1R+/+ cells,up to 35%
same,effect on Htt96Q in SDS-insoluble aggregates,[3]; S1R−/− cells,abolished
same,mitochondrial membrane potential signal after H2O2 stimulation,[4]; S1R+/+ cells,increases TMRM signal after H2O2 stimulation
same,effect on mitochondrial membrane potential,"[4]; absence of the S1R (silenced ~83%), p<0.0001",abolished
same,decrease of ROS levels (CellRox),HD lymphoblasts,57%
